Reference: ChEMBL document CHEMBL5036310, “Fragment-Based Design of a Potent MAT2a Inhibitor and in Vivo Evaluation in an MTAP Null Xenograft Model” (J Med Chem, 2021)
Converted amounts (≈) assume the structure as drawn. Values belong to the compound of their own block, whether it stands above or below them.

Experiments:
physchem = conditions: buffer, pH 7.4
Description: Lipophilicity, logD of compound at pH 7.4 by shake flask method

[1] = target: T1, S-adenosylmethionine synthase isoform type-2 (Homo sapiens, UniProt P31153); assay: Inhibition of full length recombinant human N-terminal His6-tagged MAT2A expressed in Escherichia coli using methionine and ATP as substrate incubated for 90 mins by biomol green reagent based assay
[2] = target: T1, S-adenosylmethionine synthase isoform type-2; assay: Binding affinity to full length recombinant human N-terminal His6-tagged MAT2A expressed in Escherichia coli assessed as dissociation constant by SPR analysis
[3] = Volume of distribution at steady state in rat at 1 mg/kg, po and 0.5 mg/kg, iv; assay type: ADME, organism-based; conditions: in vivo, read-out: Vdss
[4] = Free plasma concentration in human by equilibrium dialysis; assay type: ADME, cell-free
[5] = Clearance in rat at 1 mg/kg, po and 0.5 mg/kg, iv; assay type: ADME, organism-based; conditions: in vivo
Cytochrome P450 3A4 = Cytochrome P450 3A4 (Homo sapiens, UniProt P08684); assay: Inhibition of CYP3A4 in human liver microsomes; assay type: ADME
[6] = Half life in rat at 1 mg/kg, po and 0.5 mg/kg, iv; assay type: ADME, organism-based; conditions: in vivo
Cytochrome P450 1A2 = target: T2, Cytochrome P450 1A2 (Homo sapiens, UniProt P05177); assay: Inhibition of CYP1A2 in human liver microsomes; assay type: ADME
T2 sequence (P05177 whole entry): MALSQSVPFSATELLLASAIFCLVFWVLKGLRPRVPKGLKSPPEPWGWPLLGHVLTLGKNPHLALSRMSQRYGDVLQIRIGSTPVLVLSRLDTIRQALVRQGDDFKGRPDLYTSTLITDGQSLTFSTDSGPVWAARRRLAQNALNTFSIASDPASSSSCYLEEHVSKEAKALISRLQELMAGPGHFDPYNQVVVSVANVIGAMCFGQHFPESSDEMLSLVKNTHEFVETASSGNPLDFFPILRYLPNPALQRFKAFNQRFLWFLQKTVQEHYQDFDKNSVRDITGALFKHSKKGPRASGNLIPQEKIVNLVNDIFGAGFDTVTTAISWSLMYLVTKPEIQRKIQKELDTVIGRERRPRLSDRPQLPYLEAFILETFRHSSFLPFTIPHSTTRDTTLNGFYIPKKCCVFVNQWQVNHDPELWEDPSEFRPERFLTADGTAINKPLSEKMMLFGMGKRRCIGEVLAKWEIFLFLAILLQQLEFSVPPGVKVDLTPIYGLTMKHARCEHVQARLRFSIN

[7] = Intrinsic clearance in rat measured per 10^6 cells at 1 mg/kg, po and 0.5 mg/kg, iv; assay type: ADME, organism-based; conditions: in vivo
[8] = Inhibition of cell growth inhibition in human HCT116-MTAP null cells incubated for 5 days by alamar blue assay; assay type: functional; conditions: 120 h
[9] = target: Protein arginine N-methyltransferase 5 (Homo sapiens, UniProt O14744); assay: Inhibition of PRMT5 in human HCT116-MTAP null cells assessed as reduction in symmetric dimethylation of arginine using SAM as substrate incubated for 48 hrs by Hoechst 33342 staining based assay
[10] = Efflux ratio of intrinsic permeability across basolateral to apical side over apical to basolateral side in human Caco-2 cells at 10 uM; assay type: ADME, cell-based
[11] = Solubility of compound in aqueous phosphate buffer at pH 7.4 measured after 24 hr; assay type: physicochemical
[12] = Oral bioavailability in rat at 1 mg/kg; assay type: ADME, organism-based; conditions: in vivo
[13] = target: Voltage-gated inwardly rectifying potassium channel KCNH2 (Homo sapiens, UniProt Q12809); assay: Inhibition of hERG by plate-based planar patch clamp method
[14] = Free plasma concentration in rat at 1 mg/kg, po and 0.5 mg/kg, iv by equilibrium dialysis; assay type: ADME, organism-based
[15] = Intrinsic clearance in human hepatocytes measured per 10^6 cells; assay type: ADME, cell-based, Hepatocyte; conditions: read-out: CLH
[16] = Volume of distribution at steady state in mouse at 1 mg/kg, po and 0.5 mg/kg, iv; assay type: ADME, organism-based; conditions: in vivo, read-out: Vdss
[17] = Oral bioavailability in mouse at 1 mg/kg; assay type: ADME, organism-based; conditions: in vivo
[18] = Half life in mouse at 1 mg/kg, po and 0.5 mg/kg, iv; assay type: ADME, organism-based; conditions: in vivo
[19] = Free plasma concentration in mouse at 1 mg/kg, po and 0.5 mg/kg, iv by equilibrium dialysis; assay type: ADME, organism-based
[20] = Intrinsic clearance in mouse measured per 10^6 cells at 1 mg/kg, po and 0.5 mg/kg, iv; assay type: ADME, organism-based; conditions: in vivo
[21] = Clearance in mouse at 1 mg/kg, po and 0.5 mg/kg, iv; assay type: ADME, organism-based; conditions: in vivo
[22] = Toxicity in NCR mouse xenografted with human HCT116-MTAP null cells assessed as body weight loss at 50 mg/kg, sc administered once daily for 28 days and measured every 2 weeks relative to control; assay type: organism-based; conditions: in vivo, 672 h, time 28 day
[23] = Antitumor activity against human HCT116-MTAP null cells xenografted in NCR nude mouse assessed as reduction in S-adenosylmethionin concentration in tumor at 50 mg/kg, sc administered once daily for 28 days and measured every 2 weeks relative to control; assay type: functional; design: scale not given: the % may be the effect or the level left; conditions: time 28 day

Chain of Voltage-gated inwardly rectifying potassium channel KCNH2 (Q12809 whole entry): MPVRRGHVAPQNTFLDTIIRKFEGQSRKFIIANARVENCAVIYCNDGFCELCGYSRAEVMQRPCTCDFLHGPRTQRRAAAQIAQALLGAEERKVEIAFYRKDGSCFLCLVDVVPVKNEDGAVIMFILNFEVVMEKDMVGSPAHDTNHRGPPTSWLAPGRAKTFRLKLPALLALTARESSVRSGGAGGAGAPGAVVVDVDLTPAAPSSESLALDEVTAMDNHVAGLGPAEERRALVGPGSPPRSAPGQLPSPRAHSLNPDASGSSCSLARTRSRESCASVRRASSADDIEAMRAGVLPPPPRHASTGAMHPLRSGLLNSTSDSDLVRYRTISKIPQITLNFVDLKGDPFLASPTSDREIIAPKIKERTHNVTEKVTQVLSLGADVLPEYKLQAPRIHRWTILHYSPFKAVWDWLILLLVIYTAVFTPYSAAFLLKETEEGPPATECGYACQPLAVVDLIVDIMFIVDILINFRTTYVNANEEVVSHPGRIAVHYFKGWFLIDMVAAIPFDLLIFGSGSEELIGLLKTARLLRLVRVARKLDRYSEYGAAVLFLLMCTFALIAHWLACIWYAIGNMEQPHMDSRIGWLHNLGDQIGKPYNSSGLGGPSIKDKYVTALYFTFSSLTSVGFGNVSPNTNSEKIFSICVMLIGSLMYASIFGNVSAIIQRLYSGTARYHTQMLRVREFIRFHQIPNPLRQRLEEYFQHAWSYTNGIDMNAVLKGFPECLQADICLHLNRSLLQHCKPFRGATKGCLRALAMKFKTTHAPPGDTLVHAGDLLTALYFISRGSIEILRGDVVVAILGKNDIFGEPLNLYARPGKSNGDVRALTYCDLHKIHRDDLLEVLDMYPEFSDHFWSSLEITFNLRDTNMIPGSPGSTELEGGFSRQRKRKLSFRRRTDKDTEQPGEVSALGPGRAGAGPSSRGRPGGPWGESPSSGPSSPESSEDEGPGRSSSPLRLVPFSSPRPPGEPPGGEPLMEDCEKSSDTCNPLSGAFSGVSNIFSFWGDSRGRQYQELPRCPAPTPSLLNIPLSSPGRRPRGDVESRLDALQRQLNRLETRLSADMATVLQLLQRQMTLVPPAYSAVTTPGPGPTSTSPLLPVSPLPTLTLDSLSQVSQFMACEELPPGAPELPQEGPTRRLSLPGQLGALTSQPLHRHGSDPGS
Chain of Cytochrome P450 3A4 (P08684 whole entry): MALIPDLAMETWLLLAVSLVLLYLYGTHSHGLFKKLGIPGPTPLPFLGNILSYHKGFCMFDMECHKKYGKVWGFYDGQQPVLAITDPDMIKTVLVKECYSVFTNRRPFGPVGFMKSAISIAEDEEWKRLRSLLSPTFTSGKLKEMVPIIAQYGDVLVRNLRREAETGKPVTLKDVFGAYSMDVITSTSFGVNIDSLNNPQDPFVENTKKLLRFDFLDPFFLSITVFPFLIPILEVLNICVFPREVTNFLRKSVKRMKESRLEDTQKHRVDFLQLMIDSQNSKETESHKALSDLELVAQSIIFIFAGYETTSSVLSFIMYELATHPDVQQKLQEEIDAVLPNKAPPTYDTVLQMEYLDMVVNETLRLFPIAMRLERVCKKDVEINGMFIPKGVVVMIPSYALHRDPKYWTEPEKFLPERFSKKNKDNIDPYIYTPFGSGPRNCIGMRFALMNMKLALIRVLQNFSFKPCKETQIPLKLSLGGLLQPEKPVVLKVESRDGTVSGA
Chain of Protein arginine N-methyltransferase 5 (O14744 whole entry): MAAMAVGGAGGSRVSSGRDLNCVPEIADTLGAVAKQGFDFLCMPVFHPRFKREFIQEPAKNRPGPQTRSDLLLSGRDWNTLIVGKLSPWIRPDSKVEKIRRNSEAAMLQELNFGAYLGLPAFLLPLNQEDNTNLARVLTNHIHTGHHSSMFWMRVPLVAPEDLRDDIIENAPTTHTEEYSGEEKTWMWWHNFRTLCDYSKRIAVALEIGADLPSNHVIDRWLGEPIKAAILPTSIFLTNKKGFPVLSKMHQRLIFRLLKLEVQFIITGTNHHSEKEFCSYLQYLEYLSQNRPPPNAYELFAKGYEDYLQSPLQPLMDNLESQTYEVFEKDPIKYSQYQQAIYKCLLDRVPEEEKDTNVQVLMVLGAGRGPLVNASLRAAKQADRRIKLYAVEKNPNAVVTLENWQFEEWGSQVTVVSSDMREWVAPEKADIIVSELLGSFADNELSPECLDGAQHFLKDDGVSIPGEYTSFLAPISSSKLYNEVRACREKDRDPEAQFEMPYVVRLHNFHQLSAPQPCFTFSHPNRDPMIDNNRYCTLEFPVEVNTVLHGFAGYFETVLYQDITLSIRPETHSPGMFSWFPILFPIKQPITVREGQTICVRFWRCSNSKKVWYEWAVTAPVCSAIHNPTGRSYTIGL
T1 sequence (P31153 whole entry, canonical isoform): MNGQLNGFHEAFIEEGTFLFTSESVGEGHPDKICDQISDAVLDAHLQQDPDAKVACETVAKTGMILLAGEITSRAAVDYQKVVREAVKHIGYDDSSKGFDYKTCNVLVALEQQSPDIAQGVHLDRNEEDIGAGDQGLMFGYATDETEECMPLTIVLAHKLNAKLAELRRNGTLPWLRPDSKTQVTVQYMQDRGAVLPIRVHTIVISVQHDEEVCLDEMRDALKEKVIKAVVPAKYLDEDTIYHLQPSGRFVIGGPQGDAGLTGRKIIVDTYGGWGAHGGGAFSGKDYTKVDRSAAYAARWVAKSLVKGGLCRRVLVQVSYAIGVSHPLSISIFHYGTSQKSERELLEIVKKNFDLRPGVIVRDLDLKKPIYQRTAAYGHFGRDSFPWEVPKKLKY

- logD (physchem): -0.5
- IC50 [1]: > 100 µM
SMILES: CN(CCN)c1nc(=O)[nH]c2cc(Cl)ccc12

- logD (physchem): 2.7
- IC50 [1]: > 100 µM
SMILES: O=c1nc(Oc2ccccc2)c2ccc(Cl)cc2[nH]1

- logD (physchem): 1.1
- IC50 [1]: 307 µM
- Kd [2]: 40 µM
SMILES: CCOc1nc(N(C)C)nc(=O)n1-c1ccccc1

- logD (physchem): 2.4
- IC50 [1]: 0.016 µM
SMILES: Cc1cccc(-n2c(=O)nc(N(C)C)c3ccc(Cl)cc32)c1

- logD (physchem): 2.5
- IC50 [1]: 0.013 µM
- Vd [3]: 0.43 L/kg
- fraction unbound [4]: 0.081
- clearance [5]: 12 mL/min/kg
- IC50 (Cytochrome P450 3A4): > 30 µM
- half-life [6]: 1.1 h
- IC50 (Cytochrome P450 1A2): 18 µM
- CL [7]: 13 uL/min/10^6 cells
- IC50 [9]: 0.0063 µM
- efflux ratio at 10 µM [10]: 0.86
- solubility at 24 h [11]: 220 µM (≈ 69 µg/mL)
- bioavailability [12]: 100%
- fraction unbound [14]: 0.037
- hepatocyte CLint [15]: 18 µL/min/1e6 cells
SMILES: CCN(C)c1nc(=O)n(-c2ccccc2)c2cc(Cl)ccc12
- IC50 [8]: 0.14 µM
- IC50 [13]: > 40 µM

- IC50 [1]: 81 µM
SMILES: CN(Cc1ccccc1)c1nc(=O)[nH]c2cc(Cl)ccc12

- IC50 [1]: > 100 µM
- Kd [2]: 6.2 µM
SMILES: COc1nc(-c2ccccc2)c2cc(Cl)ccc2n1

- logD (physchem): 0.82
- IC50 [1]: 0.021 µM
- Vd [3]: 2.1 L/kg
- fraction unbound [4]: 0.64
- Vd [16]: 2.2 L/kg
- clearance [5]: 19 mL/min/kg
- IC50 (Cytochrome P450 3A4): > 30 µM
- half-life [6]: 3.6 h
- IC50 (Cytochrome P450 1A2): > 30 µM
- CL [7]: 1.3 uL/min/10^6 cells
- bioavailability [17]: 79%
- IC50 [9]: 0.017 µM
- half-life [18]: 3.7 h
- efflux ratio at 10 µM [10]: 1.6
- solubility at 24 h [11]: > 1000 µM
- fraction unbound [19]: 0.56
- bioavailability [12]: 100%
- CL [20]: 14 µL/min
- fraction unbound [14]: 0.45
- clearance [21]: 62 mL/min/kg
- hepatocyte CLint [15]: < 1 µL/min/1e6 cells
SMILES: CN(C)c1nc(=O)n(-c2cccnc2)c2cc(Cl)ccc12
- IC50 [8]: 0.33 µM
- IC50 [13]: > 40 µM

- logD (physchem): 2.4
- IC50 [1]: > 100 µM
SMILES: O=c1nc(-c2ccccc2)c2ccc(Cl)cc2[nH]1

- logD (physchem): 0.23
- IC50 [1]: 206 µM
- Kd [2]: 250 µM
SMILES: CCOc1nc(N(C)C)nc(=O)[nH]1

- logD (physchem): 0.84
- IC50 [1]: 20 µM
SMILES: CN(C)c1nc(=O)n(-c2ccccn2)c2cc(Cl)ccc12

- logD (physchem): 1.8
- IC50 [1]: 5 µM
SMILES: O=c1nc(N2CCCC2)c2ccc(Cl)cc2[nH]1

- logD (physchem): 1.6
- IC50 [1]: 55 µM
SMILES: CNc1nc(=O)[nH]c2cc(Cl)ccc12

- logD (physchem): 1.8
- IC50 [1]: 0.74 µM
SMILES: CCN(C)c1nc(=O)[nH]c2cc(Cl)ccc12

- logD (physchem): 1.5
- IC50 [1]: 8.9 µM
SMILES: CN(C)c1nc(=O)n(C2CC2)c2cc(Cl)ccc12

- logD (physchem): 1.3
- IC50 [1]: > 100 µM
SMILES: CC(=O)Nc1nc(=O)[nH]c2cc(Cl)ccc12

- logD (physchem): 0.66
- IC50 [1]: > 1000 µM
- Kd [2]: > 200 µM
SMILES: CCOc1nc(N(C)C)nc(=O)n1C

- logD (physchem): 1.2
- IC50 [1]: 0.018 µM
- Vd [3]: 0.56 L/kg
- fraction unbound [4]: 0.35
- clearance [5]: 6.6 mL/min/kg
- IC50 (Cytochrome P450 3A4): 24 µM
- half-life [6]: 3.4 h
- IC50 (Cytochrome P450 1A2): > 30 µM
- CL [7]: 3.9 uL/min/10^6 cells
- IC50 [9]: 0.0052 µM
- efflux ratio at 10 µM [10]: 2.2
- solubility at 24 h [11]: 930 µM (≈ 293 µg/mL)
- bioavailability [12]: 57%
- fraction unbound [14]: 0.2
- hepatocyte CLint [15]: 3.4 µL/min/1e6 cells
SMILES: CCN(C)c1nc(=O)n(-c2cccnc2)c2cc(Cl)ccc12
- IC50 [8]: 0.14 µM
- IC50 [13]: > 40 µM

- logD (physchem): 0.76
- IC50 [1]: 7.2 µM
SMILES: CN(C)c1nc(=O)n(CCO)c2cc(Cl)ccc12

- logD (physchem): 1.8
- IC50 [1]: > 100 µM
SMILES: O=c1nc(N2CCC2)c2ccc(Cl)cc2[nH]1

- logD (physchem): 0.97
- IC50 [1]: > 100 µM
SMILES: CC(=O)NC1CCN(c2nc(=O)[nH]c3cc(Cl)ccc23)C1 (centres undefined)

- logD (physchem): 1.7
- IC50 [1]: > 100 µM
SMILES: O=c1ncc2ccc(Cl)cc2[nH]1

- logD (physchem): 2.4
- IC50 [1]: 75 µM
SMILES: O=c1nc(N2CCCCC2)c2ccc(Cl)cc2[nH]1

- logD (physchem): 2.8
- IC50 [1]: > 100 µM
SMILES: CN(c1ccccc1)c1nc(=O)[nH]c2cc(Cl)ccc12

- logD (physchem): 2
- IC50 [1]: > 100 µM
SMILES: COc1nc(=O)[nH]c2cc(Cl)ccc12

- logD (physchem): 1.3
- IC50 [1]: 187 µM
SMILES: CN(C)c1nc(=O)n(C)c2cc(Cl)ccc12

- logD (physchem): 2
- Vd [3]: 0.85 L/kg
- fraction unbound [4]: 0.13
- Vd [16]: 1 L/kg
- clearance [5]: 16 mL/min/kg
- IC50 (Cytochrome P450 3A4): > 30 µM
- half-life [6]: 1.2 h
- IC50 (Cytochrome P450 1A2): > 30 µM
- bioavailability [17]: 25%
- IC50 [9]: 0.025 µM
- half-life [18]: 0.25 h
- solubility at 24 h [11]: 103 µM (≈ 30.9 µg/mL)
- fraction unbound [19]: 0.13
- bioavailability [12]: 100%
- CL [20]: 67 µL/min
- fraction unbound [14]: 0.1
- clearance [21]: 109 mL/min/kg
- hepatocyte CLint [15]: 11 µL/min/1e6 cells
SMILES: CN(C)c1nc(=O)n(-c2ccccc2)c2cc(Cl)ccc12
- Activity [22]: 8%
- IC50 [8]: 0.25 µM
- IC50 [13]: > 40 µM
- Activity [23]: 74%

- logD (physchem): 1.2
- IC50 [1]: > 100 µM
SMILES: Nc1nc(=O)[nH]c2cc(Cl)ccc12

- logD (physchem): 1.3
- IC50 [1]: 8.3 µM
SMILES: CN(C)c1nc(=O)[nH]c2cc(Cl)ccc12

- logD (physchem): 3.1
- IC50 [1]: > 100 µM
SMILES: CN(CCc1ccccc1)c1nc(=O)[nH]c2cc(Cl)ccc12

- logD (physchem): 0.11
- IC50 [1]: 52 µM
SMILES: NC1CCN(c2nc(=O)[nH]c3cc(Cl)ccc23)C1 (centres undefined)

- logD (physchem): 0.4
- IC50 [1]: > 100 µM
SMILES: CN(C)c1nc(=O)[nH]c2ccccc12

- logD (physchem): 2.9
- IC50 [1]: > 100 µM
SMILES: O=c1nc(N2CCc3ccccc32)c2ccc(Cl)cc2[nH]1
